Earlier results as cited in patent US20070099889A1, “Use of pseudan and pseudan inclusion bodies” (priority 2005, published 2007).

Details: isolated from filtrates of 4 to 6 week old culture of P. aeruginosa

CCCCCCCCCc1cc(O)c2ccccc2n1 [4-hydroxy-2-nonylquinoline]
antibiotic activity: exhibit antibiotic activity
